Experimental data taken from patent US20050221456A1, “Use of indanoyl amide to stimulate secondary metabolism in Taxus sp” (Phyton Biotech, Inc., priority 2004, published 2005).

Legend:
Taxus chinensis cells [1] = assay: Effect of 6-BII on taxane production in suspension culture (14 days); assay type: cell-based; conditions: for Baccatin III / Paclitaxel / Total taxanes: 14 days in production medium with NAA, MDCA, GLN, silver thiosulfate
Method: (§1) This experiment was carried out according to the following parameters. Taxus chinensis cells were cultivated as callus and then as suspended cells on growth medium (Medium A, Table B) according to the methods described above. After seven days of cultivation in this medium, the suspended cells were substantially separated from this medium and placed at approximately 20% (w/v) fresh cells into a basal production medium (Medium B, Table B) with an initial pH of 5.8. In addition to the ingredients listed in Table B, the medium comprised 20 micromol/l NAA, 20 micromol/l MDCA, 5 mmol/l GLN, and 50 micromol/l silver as a thiosulfate complex. The gas phase was controlled to oxygen at 90-97% of the levels in air and 2.5-6% CO2; the temperature was held at 25±2 degrees Celsius. The cells were cultivated in the dark and were agitated at 150-200 rpm for the duration of the experiment. After 14 days of cultivation in production medium, the culture was harvested for taxanes.

Taxus chinensis cells [2] = assay: Fed batch addition of 6-EII, taxane production in Taxus chinensis suspension culture (12 days); assay type: cell-based; conditions: for Baccatin III / Paclitaxel: harvest after 12 days in production medium; for Total: total taxanes, harvest after 12 days
Excerpt: The medium also contains an indanoyl amide as described in the present application, optionally in combination with one or more jasmonic acid-related substance, and these materials may be added at the beginning of the culture, after the exponential growth phase, or intermittantly throughout the culture period. The other ingredients of the medium may be added all at one time or at different times during the cultivation and may be fed continuously or intermittently. The ingredients may be added either before or after the inclusion of plant cells in the culture broth. Further, nutrients or other ingredients may be additionally added during cultivation, if deemed useful. Optionally, the medium may be changed after a suitable period of cultivation whereby the cells are freshly exposed to a medium containing similar ingredients as described above. Such changes could involve changes to the amounts of sugars such as glucose, fructose, sucrose, maltose, etc., nitrogen sources such as nitrate, ammonium, or amino acids or casamino acids, etc. After a period of cultivation, the culture is harvested and the levels of taxanes are quantified using HPLC and specific taxanes are identified using LC/MS/MS. Taxanes can be recovered from these cultures by appropriate extraction and purification procedures. For Experiments 2-8, Taxus cells were cultivated as callus cultures on solid medium and then further cultivated as suspensions of cell aggregates in liquid medium. Although taxanes can be produced by cultivation on solid medium, the use of liquid medium is preferred. The temperature of cultivation was controlled between 20 and 30 degrees Celsius. This experiment was carried out according to the following parameters. […] Taxus chinensis cells were cultivated as callus and then as suspended cells in growth medium (Medium A shown in Table B) containing 1% maltose and B5 salts according to the methods described above. After seven days of cultivation in this medium, the suspended cells were substantially separated from this medium and placed at about 20% (w/v) fresh cells into a production medium consisting of about 20% (v/v) spent growth medium and 80% (v/v) basal production medium (Medium B shown in Table B, but 1.25-fold concentrated) with an initial pH of 5.8 and containing 20 micromol/l MDCA and 50 micromol/l SLTS (Silver Thiosulfate). […] The gas phase was controlled to 25% oxygen and 4.5% CO2 (balance nitrogen) and the temperature was held at 25±2 degrees Celsius. The cells were cultivated in the dark and were agitated at 100-150 rpm for the duration of the experiment. After 12 days of cultivation in production medium, the culture was harvested for taxanes.

Taxus cells = assay: Batch addition of 6-EII in combination with other medium components, taxane production; assay type: cell-based; conditions: batch mode
Method: Taxus cells were cultivated using procedures similar to those used for Example 2. The media were composed of different combinations of 6-EII (or methyl jasmonate-MJS), NAA, SLTS, MDCA and Glutamine. All ingredients were added in a batch mode, i.e., all at once.

Taxus chinensis cells [3] = assay: Effect of 6-EII in combination with other medium ingredients on taxane yield (14 days); assay type: cell-based
Method: This experiment was carried out according to the following parameters. Taxus chinensis cells were cultivated as callus and then as suspended cells on growth Medium A (Table B), according to the methods described above. After seven days of cultivation in this medium, the suspended cells were substantially separated from this medium and placed at approximately 20% (w/v) fresh cells into a basal production medium (Medium B, Table B) with an initial pH of 5.8. In addition to the components listed in Medium B, the medium additionally comprised 5 millimol/l glutamine. The gas phase was controlled to oxygen at 90-97% of the value in air and 2.5-6% CO2; the temperature was held at 25±2 degrees Celsius. The cells were cultivated in the dark and were agitated at 150-200 rpm for the duration of the experiment. After 14 days of cultivation in production medium, the culture was harvested for taxanes.

Taxus chinensis cells [4] = assay: Effect of silver nitrate and 6-EII on taxane production (14 days); assay type: cell-based; conditions: silver as nitrate salt or thiosulfate complex
Excerpt: Taxus chinensis cells were cultivated as callus and then as suspended cells on growth medium (Table B, Medium A) according to the methods described above in Examples 1 and 2. After seven days of cultivation in this medium, the suspended cells were substantially separated from this medium and placed at ca. 20% (w/v) fresh cells into Medium B (Table B) at an initial pH of 5.8. In addition to the components listed in Table B, 20 micromol/l NAA, 20 micromol/l MDCA, 5 mmol/l GLN, MJS or 6-EII and silver as a nitrate salt or thiosulfate complex were added to the medium at various levels. The gas phase was controlled to oxygen at 90-97% of the levels in air and CO2 at 2.5-6%; the temperature was held at 25±2 degrees Celsius. The cells were cultivated in the dark and were agitated at 150-200 rpm for the duration of the experiment. After 14 days of cultivation in production medium, the culture was harvested for taxanes.

Taxus chinensis cells [5] = assay: Effect of 1-OII on accumulation of taxanes by Taxus cell suspension culture (14 days); assay type: cell-based; conditions: for Baccatin III / Paclitaxel / Total taxanes: 14 days in production medium with NAA, MDCA, GLN, silver thiosulfate
Method: as §1, with “ca.” for “approximately”, “also contained” for “comprised”, “value” for “levels”

[6] = test system: touch-sensitive tendrils of Bryonia diocia; conditions: quoted from Schuler et al. WO 02/55480; cited from earlier work
tendril coiling = conditions: quoted from Haider et al.; cited from earlier work
[7] = test system: paclitaxel and taxanes biosynthesis; conditions: teaching of EP 727492 (Yukimune et al.); cited from earlier work
[8] = test system: Eschscholzia californica Cell Cultures; conditions: compared with the octadecanoids or coronatine; quoted from Haider et al.; cited from earlier work
[9] = cumulative 12-day fed batch dose 20 micromol/l
[10] = cumulative 12-day fed batch dose 50 micromol/l
[11] = cumulative 12-day fed batch dose 75 micromol/l
[12] = cumulative 12-day fed batch dose 100 micromol/l
[13] = cumulative 12-day fed batch dose 30 micromol/l

Question: For 6-Bromoindanoyl isoleucine [6-BII], which “induction of taxanes production” value (Taxus chinensis cells [1]; T. chinensis cell cultures) is on record?
Answer: effective inducer of taxanes production

Question: And the “Baccatin III” value (Taxus chinensis cells [1]; dose 5 micromol/l)?
Answer: 92 mg/L

Question: And the Paclitaxel (Taxus chinensis cells [1]; dose 5 micromol/l)?
Answer: 235 mg/L

Question: And the Total taxanes (Taxus chinensis cells [1]; dose 5 micromol/l)?
Answer: 423 mg/L

Question: What about the “Baccatin III” value (Taxus chinensis cells [1]; dose 20 micromol/l) of the same molecule?
Answer: 114 mg/L

Question: And the Paclitaxel (Taxus chinensis cells [1]; dose 20 micromol/l)?
Answer: 230 mg/L

Question: And the Total taxanes (Taxus chinensis cells [1]; dose 20 micromol/l)?
Answer: 441 mg/L

Question: And the “Baccatin III” value (Taxus chinensis cells [1]; dose 50 micromol/l)?
Answer: 174 mg/L

Question: What about the Paclitaxel (Taxus chinensis cells [1]; dose 50 micromol/l) of the same molecule?
Answer: 254 mg/L

Question: And the Total taxanes (Taxus chinensis cells [1]; dose 50 micromol/l)?
Answer: 580 mg/L

Question: And the “Baccatin III” value (Taxus chinensis cells [1]; dose 100 micromol/l)?
Answer: 313 mg/L

Question: What about the Paclitaxel (Taxus chinensis cells [1]; dose 100 micromol/l) of the same molecule?
Answer: 360 mg/L

Question: And the Total taxanes (Taxus chinensis cells [1]; dose 100 micromol/l)?
Answer: 962 mg/L

Question: What about the “Baccatin III” value (Taxus chinensis cells [1]; dose 200 micromol/l) of the same molecule?
Answer: 307 mg/L

Question: What about the Paclitaxel (Taxus chinensis cells [1]; dose 200 micromol/l) of the same molecule?
Answer: 375 mg/L

Question: What about the Total taxanes (Taxus chinensis cells [1]; dose 200 micromol/l) of the same molecule?
Answer: 1060 mg/L

Question: And the “Baccatin III” value (Taxus chinensis cells [1]; dose 500 micromol/l)?
Answer: 1 mg/L

Question: What about the Paclitaxel (Taxus chinensis cells [1]; dose 500 micromol/l) of the same molecule?
Answer: 0 mg/L

Question: And the Total taxanes (Taxus chinensis cells [1]; dose 500 micromol/l)?
Answer: 105 mg/L

Question: What does the source list for 6-ethyl-indanoyl-isoleucine [6-EII]?
Answer: activity on taxane production compared with methyl jasmonate (Taxus chinensis cells [2]; 12-day fed batch treatment): comparable activity; Baccatin III (Taxus chinensis cells [2]; [9]): 159 mg/L; Paclitaxel (Taxus chinensis cells [2]; [9]): 443 mg/L; Baccatin III (Taxus chinensis cells [2]; [10]): 358 mg/L; Paclitaxel (Taxus chinensis cells [2]; [10]): 495 mg/L; Baccatin III (Taxus chinensis cells [2]; [11]): 605 mg/L; Paclitaxel (Taxus chinensis cells [2]; [11]): 556 mg/L; Baccatin III (Taxus chinensis cells [2]; [12]): 616 mg/L; Paclitaxel (Taxus chinensis cells [2]; [12]): 557 mg/L; Total (Taxus chinensis cells [2]; [9]): 694 mg/L; Total (Taxus chinensis cells [2]; [10]): 1301 mg/L; Total (Taxus chinensis cells [2]; [11]): 1693 mg/L; Total (Taxus chinensis cells [2]; [12]): 1702 mg/L; activity in improving taxane production compared with MJS (Taxus cells; all ingredients added at once): comparable activity in improving taxane production; interaction with auxin-type growth regulator NAA on taxane production (Taxus cells; combined with NAA): interact positively to improve taxane production; interaction with glutamine on taxane production (Taxus cells; combined with glutamine): interact favorably to improve taxane production; interaction with silver on overall production of taxanes (Taxus cells; combined with silver (SLTS)): works synergistically with silver to increase overall production of taxanes; effect on baccatin-III versus paclitaxel production (Taxus cells; with silver): improve baccatin-III production without reducing the amount of paclitaxel produced; taxane yield, 6-EII by itself (Taxus chinensis cells [3]; 6-EII 5-500 micromol/l, by itself): increase in taxane yield; taxane yield, combined with NAA (Taxus chinensis cells [3]; 6-EII with 20 micromol/l NAA): yield improved by a significantly higher amount; taxane yield, combined with NAA and silver (Taxus chinensis cells [3]; 6-EII with 20 micromol/l NAA and 50 micromol/l silver (thiosulfate complex)): yield further increased; taxane yield, combined with NAA, silver and MDCA (Taxus chinensis cells [3]; 6-EII with 20 micromol/l NAA, 50 micromol/l silver and 20 micromol/l MDCA): yield increased even further; interaction with silver on taxane production (Taxus chinensis cells [4]): act synergistically

Question: What does the source list for `CC[C@H](C)[C@H](NC(=O)c1cccc2c1CCC2=O)C(=O)OC` [1-OII, 1-oxo-indane-carboxy-(L)-isoleucine-methyl ester amide]?
Answer: induction of taxanes production (Taxus chinensis cells [5]; Taxus suspension culture): effective inducer of taxanes production; Baccatin III (Taxus chinensis cells [5]; dose 5 micromol/l): 50 mg/L; Paclitaxel (Taxus chinensis cells [5]; dose 5 micromol/l): 192 mg/L; Total taxanes (Taxus chinensis cells [5]; dose 5 micromol/l): 300 mg/L; Baccatin III (Taxus chinensis cells [5]; dose 20 micromol/l): 72 mg/L; Paclitaxel (Taxus chinensis cells [5]; dose 20 micromol/l): 248 mg/L; Total taxanes (Taxus chinensis cells [5]; dose 20 micromol/l): 400 mg/L; Baccatin III (Taxus chinensis cells [5]; dose 50 micromol/l): 112 mg/L; Paclitaxel (Taxus chinensis cells [5]; dose 50 micromol/l): 349 mg/L; Total taxanes (Taxus chinensis cells [5]; dose 50 micromol/l): 580 mg/L; Baccatin III (Taxus chinensis cells [5]; dose 100 micromol/l): 242 mg/L; Paclitaxel (Taxus chinensis cells [5]; dose 100 micromol/l): 409 mg/L; Total taxanes (Taxus chinensis cells [5]; dose 100 micromol/l): 822 mg/L; Baccatin III (Taxus chinensis cells [5]; dose 200 micromol/l): 375 mg/L; Paclitaxel (Taxus chinensis cells [5]; dose 200 micromol/l): 407 mg/L; Total taxanes (Taxus chinensis cells [5]; dose 200 micromol/l): 1055 mg/L; Baccatin III (Taxus chinensis cells [5]; dose 500 micromol/l): 45 mg/L; Paclitaxel (Taxus chinensis cells [5]; dose 500 micromol/l): 67 mg/L; Total taxanes (Taxus chinensis cells [5]; dose 500 micromol/l): 368 mg/L

Question: Which “elicitation of the coiling reaction of tendrils” value [6] does the source give for `CCc1cc2c(c(C(=O)N[C@H](C(=O)OC)[C@@H](C)CC)c1)CCC2=O` [6-ethyl-1-oxo-indanoyl isoleucine methyl ester] here?
Answer: potent elicitor

Question: Which “induction of tendril coiling” value (tendril coiling) does the source give for `CCC1CC1(NC(=O)C1=C[C@H](CC)C[C@@H]2C(=O)CC[C@H]12)C(=O)O` (some centres unmarked) [Coronatine] here?
Answer: strong inducers of tendril coiling

Question: And the “induction of paclitaxel and taxanes biosynthesis” value [7]?
Answer: shown to induce paclitaxel and taxanes biosynthesis

Question: Which “Baccatin III” value (Taxus chinensis cells [2]; [13]) does the source give for `CC/C=C\CC1C(=O)CCC1CC(=O)OC` (centres unmarked) [MJS, methyl jasmonate, reference compound] here?
Answer: 273 mg/L

Question: What about the Paclitaxel (Taxus chinensis cells [2]; [13]) of the same molecule?
Answer: 490 mg/L

Question: What about the Total (Taxus chinensis cells [2]; [13]) of the same molecule?
Answer: 1410 mg/L

Question: What about the “Baccatin III” value (Taxus chinensis cells [1]; dose 45 micromol/l) of the same molecule?
Answer: 154 mg/L

Question: What about the Paclitaxel (Taxus chinensis cells [1]; dose 45 micromol/l) of the same molecule?
Answer: 574 mg/L

Question: And the Total taxanes (Taxus chinensis cells [1]; dose 45 micromol/l)?
Answer: 912 mg/L

Question: What about the “Baccatin III” value (Taxus chinensis cells [5]; dose 45 micromol/l) of the same molecule?
Answer: 226 mg/L

Question: What about the Paclitaxel (Taxus chinensis cells [5]; dose 45 micromol/l) of the same molecule?
Answer: 432 mg/L

Question: And the Total taxanes (Taxus chinensis cells [5]; dose 45 micromol/l)?
Answer: 854 mg/L

Question: What about the “activation of benzo[c]phenanthridine alkaloid accumulation” value [8] of the same molecule?
Answer: much more effective
